# Measured values published in ChEMBL document CHEMBL5465560, “Selectivity Literature for EUbOPEN Chemogenomic Library” (2024).
# Columns and labels:
# [1] = target: Calcium/calmodulin-dependent protein kinase type 1D (Homo sapiens) (UniProt Q8IU85); test: Selectivity interaction (KinomeScan (DiscoverX)) EUB0000595a CAMK1D; settings: at 10 µM
# [2] = target: T1, Mitogen-activated protein kinase 15 (Homo sapiens) (UniProt Q8TD08); test: Selectivity interaction (KinomeScan (DiscoverX)) EUB0000695a MAPK15; settings: at 100 nM
# T1 sequence (whole entry): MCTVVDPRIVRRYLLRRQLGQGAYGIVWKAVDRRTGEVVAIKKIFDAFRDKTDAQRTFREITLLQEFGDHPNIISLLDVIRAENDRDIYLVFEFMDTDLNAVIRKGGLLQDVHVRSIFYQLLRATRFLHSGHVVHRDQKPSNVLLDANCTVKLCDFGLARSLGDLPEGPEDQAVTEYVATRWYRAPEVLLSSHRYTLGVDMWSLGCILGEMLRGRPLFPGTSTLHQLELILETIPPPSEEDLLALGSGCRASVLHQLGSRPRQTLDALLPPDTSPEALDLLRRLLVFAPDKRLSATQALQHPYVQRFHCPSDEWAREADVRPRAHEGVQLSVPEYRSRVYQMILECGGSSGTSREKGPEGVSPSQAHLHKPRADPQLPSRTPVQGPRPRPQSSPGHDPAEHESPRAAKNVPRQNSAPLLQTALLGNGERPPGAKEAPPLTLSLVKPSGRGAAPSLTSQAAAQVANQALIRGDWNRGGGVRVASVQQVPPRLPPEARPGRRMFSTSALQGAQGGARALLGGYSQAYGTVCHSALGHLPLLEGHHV
# [3] = target: Serine/threonine-protein kinase SBK1 (Homo sapiens) (UniProt Q52WX2); test: Selectivity interaction (KinomeScan (DiscoverX)) EUB0000695a SBK1; settings: at 100 nM
# Sequence of Serine/threonine-protein kinase SBK1 (Homo sapiens) (Q52WX2 whole entry): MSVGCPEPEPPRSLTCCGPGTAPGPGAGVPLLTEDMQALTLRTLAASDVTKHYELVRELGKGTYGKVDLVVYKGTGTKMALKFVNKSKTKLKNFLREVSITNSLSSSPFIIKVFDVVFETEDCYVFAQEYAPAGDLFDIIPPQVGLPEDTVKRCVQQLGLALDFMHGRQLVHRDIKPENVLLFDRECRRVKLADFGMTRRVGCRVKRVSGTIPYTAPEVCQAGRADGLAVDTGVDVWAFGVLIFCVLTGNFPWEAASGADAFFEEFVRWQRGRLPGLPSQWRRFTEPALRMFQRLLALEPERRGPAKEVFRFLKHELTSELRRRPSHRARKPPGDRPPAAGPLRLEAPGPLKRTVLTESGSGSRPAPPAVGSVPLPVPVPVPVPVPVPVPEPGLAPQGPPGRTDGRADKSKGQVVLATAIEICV
# [4] = target: Calcium/calmodulin-dependent protein kinase type II subunit gamma (Homo sapiens) (UniProt Q13555); test: Selectivity interaction (LanthaScreen Eu Kinase Binding Assay) EUB0001632a CAMK2G; settings: at 10 µM
# [5] = target: Serine/threonine-protein kinase WNK3 (Homo sapiens) (UniProt Q9BYP7); test: Selectivity interaction (LanthaScreen Eu Kinase Binding Assay) EUB0001632a WNK3; settings: at 10 µM
# Sequence of Serine/threonine-protein kinase WNK3 (Homo sapiens) (Q9BYP7 whole entry): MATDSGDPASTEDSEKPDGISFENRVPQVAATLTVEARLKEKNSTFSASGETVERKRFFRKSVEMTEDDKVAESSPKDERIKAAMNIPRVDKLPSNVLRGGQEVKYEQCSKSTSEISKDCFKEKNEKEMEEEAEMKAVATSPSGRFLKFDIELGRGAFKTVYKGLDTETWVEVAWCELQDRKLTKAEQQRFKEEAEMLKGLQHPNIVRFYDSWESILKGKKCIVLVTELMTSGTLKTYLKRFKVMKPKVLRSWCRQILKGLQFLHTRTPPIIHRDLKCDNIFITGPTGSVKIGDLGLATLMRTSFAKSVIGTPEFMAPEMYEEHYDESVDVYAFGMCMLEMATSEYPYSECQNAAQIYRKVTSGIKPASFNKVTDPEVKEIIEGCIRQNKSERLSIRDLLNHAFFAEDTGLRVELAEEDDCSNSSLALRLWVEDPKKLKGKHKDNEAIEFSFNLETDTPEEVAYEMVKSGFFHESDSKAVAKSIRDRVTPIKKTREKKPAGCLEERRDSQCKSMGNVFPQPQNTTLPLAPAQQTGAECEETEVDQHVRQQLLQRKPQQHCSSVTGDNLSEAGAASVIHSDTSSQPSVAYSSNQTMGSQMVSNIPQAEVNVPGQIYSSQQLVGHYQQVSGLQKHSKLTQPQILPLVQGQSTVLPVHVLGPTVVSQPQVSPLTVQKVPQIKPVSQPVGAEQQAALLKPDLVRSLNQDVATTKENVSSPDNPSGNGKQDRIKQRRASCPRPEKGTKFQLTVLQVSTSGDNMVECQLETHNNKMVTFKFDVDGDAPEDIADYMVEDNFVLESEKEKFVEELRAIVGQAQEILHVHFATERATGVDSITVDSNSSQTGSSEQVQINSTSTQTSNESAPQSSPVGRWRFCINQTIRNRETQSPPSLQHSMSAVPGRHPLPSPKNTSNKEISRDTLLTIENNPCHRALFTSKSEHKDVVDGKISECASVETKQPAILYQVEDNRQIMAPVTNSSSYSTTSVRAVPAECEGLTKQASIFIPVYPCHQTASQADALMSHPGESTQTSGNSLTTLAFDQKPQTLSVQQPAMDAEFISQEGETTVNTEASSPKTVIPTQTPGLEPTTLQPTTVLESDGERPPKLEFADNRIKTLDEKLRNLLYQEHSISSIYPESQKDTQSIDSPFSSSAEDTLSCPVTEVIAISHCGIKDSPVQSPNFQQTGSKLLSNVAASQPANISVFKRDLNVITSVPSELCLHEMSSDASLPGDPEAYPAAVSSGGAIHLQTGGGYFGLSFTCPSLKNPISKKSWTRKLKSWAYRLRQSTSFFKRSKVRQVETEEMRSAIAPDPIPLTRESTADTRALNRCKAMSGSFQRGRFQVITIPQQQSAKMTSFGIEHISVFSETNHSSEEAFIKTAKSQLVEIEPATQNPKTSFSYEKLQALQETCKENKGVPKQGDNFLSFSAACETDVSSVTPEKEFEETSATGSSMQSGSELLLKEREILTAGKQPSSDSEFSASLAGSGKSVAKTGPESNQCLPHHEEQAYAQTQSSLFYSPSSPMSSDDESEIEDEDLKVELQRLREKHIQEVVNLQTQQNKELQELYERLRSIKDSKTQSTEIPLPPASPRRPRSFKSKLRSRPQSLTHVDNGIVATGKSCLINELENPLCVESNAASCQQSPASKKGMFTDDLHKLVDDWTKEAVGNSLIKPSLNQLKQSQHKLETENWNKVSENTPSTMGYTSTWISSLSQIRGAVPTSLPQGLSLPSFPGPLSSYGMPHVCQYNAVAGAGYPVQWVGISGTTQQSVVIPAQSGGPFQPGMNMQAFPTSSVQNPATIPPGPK
# [6] = target: T2, Serine/threonine-protein kinase TBK1 (Homo sapiens) (UniProt Q9UHD2); test: Selectivity interaction (KinomeScan (DiscoverX)) EUB0000666a TBK1; settings: at 10 µM
# T2 sequence (whole entry): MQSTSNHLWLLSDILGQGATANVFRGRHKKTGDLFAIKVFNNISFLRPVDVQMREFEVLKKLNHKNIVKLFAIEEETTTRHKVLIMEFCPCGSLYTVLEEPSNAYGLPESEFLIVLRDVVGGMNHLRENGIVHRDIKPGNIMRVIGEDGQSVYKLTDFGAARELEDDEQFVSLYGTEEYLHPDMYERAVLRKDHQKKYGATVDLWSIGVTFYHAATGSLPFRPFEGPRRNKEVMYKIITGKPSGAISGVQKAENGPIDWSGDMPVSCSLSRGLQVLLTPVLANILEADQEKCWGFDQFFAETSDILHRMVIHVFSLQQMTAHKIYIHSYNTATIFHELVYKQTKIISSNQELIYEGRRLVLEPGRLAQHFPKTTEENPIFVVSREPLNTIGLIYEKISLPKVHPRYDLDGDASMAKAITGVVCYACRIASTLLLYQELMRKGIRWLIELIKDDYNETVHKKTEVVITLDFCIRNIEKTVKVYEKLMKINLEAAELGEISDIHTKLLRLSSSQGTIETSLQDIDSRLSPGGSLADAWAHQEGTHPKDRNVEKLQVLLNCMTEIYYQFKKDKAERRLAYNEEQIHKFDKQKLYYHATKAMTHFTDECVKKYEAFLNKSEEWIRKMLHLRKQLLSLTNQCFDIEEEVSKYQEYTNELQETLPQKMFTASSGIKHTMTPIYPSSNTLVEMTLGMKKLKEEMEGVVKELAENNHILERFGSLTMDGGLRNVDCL
# [7] = target: WD repeat-containing protein 5 (Homo sapiens) (UniProt P61964); test: Selectivity interaction (PWWP, WD40, and Tudor domain panel (DSLS measurements, literature)) EUB0000270b WDR5
# [8] = target: Fibroblast growth factor receptor 3 (Homo sapiens, UniProt P22607); test: Selectivity interaction (Upstate Kinase Profiler service (Millipore)) EUB0000056c FGFR3; settings: at 1 µM
# [9] = target: Dual specificity mitogen-activated protein kinase kinase 2 (Homo sapiens) (UniProt P36507); test: Selectivity interaction (SelectScreen profiling (Invitrogen)) EUB0000607a MAP2K2; settings: at 2 µM
# Sequence of Dual specificity mitogen-activated protein kinase kinase 2 (Homo sapiens) (P36507 whole entry): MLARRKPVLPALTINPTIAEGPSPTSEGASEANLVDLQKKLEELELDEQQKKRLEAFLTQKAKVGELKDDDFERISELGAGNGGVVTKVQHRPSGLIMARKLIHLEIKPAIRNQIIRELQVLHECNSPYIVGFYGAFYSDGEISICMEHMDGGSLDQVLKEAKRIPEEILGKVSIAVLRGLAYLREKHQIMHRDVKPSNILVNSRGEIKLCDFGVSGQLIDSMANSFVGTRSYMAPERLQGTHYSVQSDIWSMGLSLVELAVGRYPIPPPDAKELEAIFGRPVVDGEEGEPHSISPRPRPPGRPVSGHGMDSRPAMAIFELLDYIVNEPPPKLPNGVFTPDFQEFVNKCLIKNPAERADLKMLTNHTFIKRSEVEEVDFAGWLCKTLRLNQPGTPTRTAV
# [10] = target: Phosphatidylinositol 4-phosphate 5-kinase type-1 alpha (Homo sapiens) (UniProt Q99755); test: Selectivity interaction (KinomeScan (DiscoverX)) EUB0000607a PIP5K1A; settings: at 10 µM
# Sequence of Phosphatidylinositol 4-phosphate 5-kinase type-1 alpha (Homo sapiens) (Q99755 whole entry): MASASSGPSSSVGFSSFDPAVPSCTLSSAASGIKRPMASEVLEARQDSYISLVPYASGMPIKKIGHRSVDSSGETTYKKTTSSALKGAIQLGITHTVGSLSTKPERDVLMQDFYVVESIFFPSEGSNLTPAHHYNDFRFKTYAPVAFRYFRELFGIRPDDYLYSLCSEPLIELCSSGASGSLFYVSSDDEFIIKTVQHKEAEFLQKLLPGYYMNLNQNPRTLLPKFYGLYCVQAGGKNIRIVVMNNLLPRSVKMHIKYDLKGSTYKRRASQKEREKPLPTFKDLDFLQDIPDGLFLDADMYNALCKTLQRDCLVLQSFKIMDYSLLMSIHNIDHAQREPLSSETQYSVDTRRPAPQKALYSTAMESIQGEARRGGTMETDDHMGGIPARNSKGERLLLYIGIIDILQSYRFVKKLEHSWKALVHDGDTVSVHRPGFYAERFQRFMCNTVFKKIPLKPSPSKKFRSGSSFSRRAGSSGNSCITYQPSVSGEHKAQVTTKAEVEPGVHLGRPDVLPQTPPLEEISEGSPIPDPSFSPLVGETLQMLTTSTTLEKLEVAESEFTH
# [11] = target: Cyclin-dependent kinase 17 (Homo sapiens) (UniProt Q00537); test: Selectivity interaction (ActivX KiNativ screen (kinase selectivity in THP-1 cell lysates)) EUB0000639a CDK17; assay type: subcellular; settings: lysate, at 5 µM
# Sequence of Cyclin-dependent kinase 17 (Homo sapiens) (Q00537 whole entry, looked up): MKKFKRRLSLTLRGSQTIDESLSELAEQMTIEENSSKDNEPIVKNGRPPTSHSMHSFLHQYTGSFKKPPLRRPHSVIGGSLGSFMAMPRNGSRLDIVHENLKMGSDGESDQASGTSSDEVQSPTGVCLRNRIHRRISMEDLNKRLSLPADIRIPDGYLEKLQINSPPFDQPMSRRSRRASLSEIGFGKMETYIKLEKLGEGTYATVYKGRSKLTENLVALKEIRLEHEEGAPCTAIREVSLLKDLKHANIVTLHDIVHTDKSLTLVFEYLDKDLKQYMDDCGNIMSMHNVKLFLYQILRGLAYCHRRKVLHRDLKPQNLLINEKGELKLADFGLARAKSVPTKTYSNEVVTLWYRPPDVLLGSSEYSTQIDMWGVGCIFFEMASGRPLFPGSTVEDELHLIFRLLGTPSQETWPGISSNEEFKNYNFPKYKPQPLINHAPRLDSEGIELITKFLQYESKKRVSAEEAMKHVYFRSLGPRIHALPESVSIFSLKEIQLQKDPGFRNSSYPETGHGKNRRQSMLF
# [12] = target: T3, Cyclin-dependent kinase 11A (Homo sapiens) (UniProt Q9UQ88); test: Selectivity interaction (KinomeScan (DiscoverX)) EUB0000092b CDK11A; settings: at 10 µM
# T3 sequence (whole entry): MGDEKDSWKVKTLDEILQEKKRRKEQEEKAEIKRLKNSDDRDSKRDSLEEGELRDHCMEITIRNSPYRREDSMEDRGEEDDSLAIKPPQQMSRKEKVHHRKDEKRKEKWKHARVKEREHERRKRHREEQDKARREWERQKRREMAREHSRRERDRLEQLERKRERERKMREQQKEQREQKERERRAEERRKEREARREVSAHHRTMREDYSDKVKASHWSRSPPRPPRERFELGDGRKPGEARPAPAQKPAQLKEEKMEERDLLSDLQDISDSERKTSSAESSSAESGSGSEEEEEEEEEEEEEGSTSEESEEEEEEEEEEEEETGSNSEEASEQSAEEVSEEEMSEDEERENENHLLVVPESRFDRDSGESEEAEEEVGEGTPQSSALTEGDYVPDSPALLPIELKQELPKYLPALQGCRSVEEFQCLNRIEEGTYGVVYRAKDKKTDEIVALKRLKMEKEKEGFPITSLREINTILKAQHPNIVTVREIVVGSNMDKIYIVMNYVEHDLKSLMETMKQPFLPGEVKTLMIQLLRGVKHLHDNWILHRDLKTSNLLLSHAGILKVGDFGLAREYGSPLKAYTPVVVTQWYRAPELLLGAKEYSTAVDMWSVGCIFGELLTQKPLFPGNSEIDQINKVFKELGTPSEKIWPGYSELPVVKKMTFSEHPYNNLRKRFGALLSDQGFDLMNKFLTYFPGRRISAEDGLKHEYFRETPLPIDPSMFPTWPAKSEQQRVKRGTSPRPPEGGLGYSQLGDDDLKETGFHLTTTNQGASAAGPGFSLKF
# [13] = target: Serine/threonine-protein kinase PAK 2 (Homo sapiens) (UniProt Q13177); test: Selectivity interaction (KinomeScan (DiscoverX)) EUB0000092b PAK2; settings: at 10 µM
# Sequence of Serine/threonine-protein kinase PAK 2 (Homo sapiens) (Q13177 whole entry): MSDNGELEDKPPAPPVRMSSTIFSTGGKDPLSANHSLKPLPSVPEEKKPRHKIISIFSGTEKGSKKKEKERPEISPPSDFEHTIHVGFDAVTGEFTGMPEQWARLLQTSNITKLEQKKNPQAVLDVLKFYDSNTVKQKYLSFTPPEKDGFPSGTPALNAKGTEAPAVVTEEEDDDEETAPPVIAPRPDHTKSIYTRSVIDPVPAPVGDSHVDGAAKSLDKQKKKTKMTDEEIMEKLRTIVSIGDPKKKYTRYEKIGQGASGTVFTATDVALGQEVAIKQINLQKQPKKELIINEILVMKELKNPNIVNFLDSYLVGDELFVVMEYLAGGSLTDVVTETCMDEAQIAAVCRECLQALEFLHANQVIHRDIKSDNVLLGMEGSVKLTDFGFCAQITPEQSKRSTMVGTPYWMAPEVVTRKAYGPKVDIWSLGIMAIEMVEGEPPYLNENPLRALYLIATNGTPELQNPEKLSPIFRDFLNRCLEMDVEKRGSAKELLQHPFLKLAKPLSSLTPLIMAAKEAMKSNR
# Sequence of Calcium/calmodulin-dependent protein kinase type 1D (Homo sapiens) (Q8IU85 whole entry, looked up): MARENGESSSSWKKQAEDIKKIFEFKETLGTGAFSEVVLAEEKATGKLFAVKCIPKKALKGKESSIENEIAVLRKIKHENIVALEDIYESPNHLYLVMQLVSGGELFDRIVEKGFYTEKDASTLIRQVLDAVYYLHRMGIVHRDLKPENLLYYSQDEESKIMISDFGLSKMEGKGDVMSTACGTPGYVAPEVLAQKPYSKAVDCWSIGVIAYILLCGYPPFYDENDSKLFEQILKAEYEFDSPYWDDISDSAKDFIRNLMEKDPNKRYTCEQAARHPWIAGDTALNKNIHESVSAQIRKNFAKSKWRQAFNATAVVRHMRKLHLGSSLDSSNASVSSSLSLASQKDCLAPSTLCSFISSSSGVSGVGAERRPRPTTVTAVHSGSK
structure (smiles),measurement,setting,value
COCC(=O)NC/C=C/c1ccc2ncnc(Nc3ccc(Oc4ccc(C)nc4)c(C)c3)c2c1 [CP-724714],% of control,[1],87%
Cc1cc(F)c(C(=O)Nc2cccc(-c3nncn3C(C)C)n2)cc1-n1cnc(C2CC2)c1,% of control,[2],100%
same,% of control,[3],93%
Cn1cc(-n2cnc3c(NCc4nc5cc(Cl)c(Cl)cc5[nH]4)nc(N4CCOCC4)nc32)cn1,% of inhibition,[4],-8.35%
same,% of inhibition,[5],-35.1%
O=C(NOC[C@H](O)CO)c1ccc(F)c(F)c1Nc1ccc(I)cc1F,% of control,[6],85%
Cc1cc(CN)cc(C)c1-c1ncn(C)c1-c1cncn1C,dTagg,[7],-0.7 K
Cc1ccc(-c2ccc3c(ccc4sc5c(c43)NC[C@@H](C)NC5=O)n2)cn1,% of inhibition,[8],16%
CNC(=O)Nc1ccc(-c2nc(N3CC4CCC(C3)O4)c3cnn(C4CCC5(CC4)OCCO5)c3n2)cc1,% of inhibition,[9],2%
same,% of control,[10],84%
CC[C@@H]1[C@H](F)C(=O)N[C@@H]1COc1nccc2cc(C(N)=O)c(OC)cc12 [ZIMLOVISERTIB],% of inhibition,[11],6.5%
CCC(=O)N1CCN(c2ccc(-n3c(=O)ccc4cnc5ccc(-c6cnc7ccccc7c6)cc5c43)cc2C(F)(F)F)CC1,% of control,[12],1.2%
same,% of control,[13],100%
